Ends that are not written are not given here.
System: T2-B * 3501 cells

With TPPLVKLWY [HIV(B35)-16] the “induction of CTL with specific cytotoxic activity” value was “effective for inducing CTLs capable of damaging the synthetic peptide-binding T2-B * 3501 cells”.

— patent US5756666A, “Peptides capable of inducing immune response to HIV” (priority 1993, dated 1998)
